Test results taken from ChEMBL document CHEMBL1155271, “Synthesis, crystal structures and antibacterial activity studies of aza-derivatives of phytoalexin from cotton plant--gossypol” (2009).
Values after ≈ are worked out from the molar mass of the structure shown. Active and inactive are the calls of the source. No cut-off for these calls is given here.

Tests used:
Assay type in all cases: functional
[1] = test system: Staphylococcus aureus; test: Antimicrobial activity against Methicillin susceptible Staphylococcus aureus 213/7 by twofold dilution technique
[2] = test system: Staphylococcus aureus; test: Antimicrobial activity against Methicillin susceptible Staphylococcus aureus 237/7 by twofold dilution technique
[3] = test system: Staphylococcus aureus; test: Antimicrobial activity against Methicillin susceptible Staphylococcus aureus 238/7 by twofold dilution technique
[4] = test system: Staphylococcus aureus; test: Antimicrobial activity against Methicillin susceptible Staphylococcus aureus 239/7 by twofold dilution technique
[5] = test system: Staphylococcus aureus; test: Antimicrobial activity against Methicillin susceptible Staphylococcus aureus 242/7 by twofold dilution technique
[6] = test system: Staphylococcus aureus; test: Antimicrobial activity against Methicillin susceptible Staphylococcus aureus 243/7 by twofold dilution technique
[7] = test system: Staphylococcus aureus; test: Antimicrobial activity against methicillin-resistant Staphylococcus aureus 140/6 by twofold dilution technique
[8] = test system: Staphylococcus aureus; test: Antimicrobial activity against methicillin-resistant Staphylococcus aureus 141/6 by twofold dilution technique
[9] = test system: Staphylococcus aureus; test: Antimicrobial activity against methicillin-resistant Staphylococcus aureus 143/6 by twofold dilution technique
[10] = test system: Staphylococcus aureus; test: Antimicrobial activity against methicillin-resistant Staphylococcus aureus 144/6 by twofold dilution technique
[11] = test system: Staphylococcus aureus; test: Antimicrobial activity against methicillin-resistant Staphylococcus aureus 146/6 by twofold dilution technique
[12] = test system: Staphylococcus aureus; test: Antimicrobial activity against methicillin-resistant Staphylococcus aureus 200/7 by twofold dilution technique
[13] = test system: Staphylococcus aureus; test: Antimicrobial activity against methicillin-resistant Staphylococcus aureus 217/7 by twofold dilution technique
[14] = test system: Staphylococcus aureus; test: Antimicrobial activity against methicillin-resistant Staphylococcus aureus 218/7 by twofold dilution technique
[15] = test system: Staphylococcus aureus; test: Antimicrobial activity against methicillin-resistant Staphylococcus aureus 236/7 by twofold dilution technique
[16] = test system: Staphylococcus aureus; test: Antimicrobial activity against Staphylococcus aureus NCTC 4163 at 400 ug after 18 hrs by disk diffusion method; settings: NCTC 4163, 18 h, read-out: DIZ
[17] = test system: Staphylococcus epidermidis; test: Antimicrobial activity against Staphylococcus epidermidis ATCC 12228 at 400 ug after 18 hrs by disk diffusion method; settings: ATCC 12228, 18 h, read-out: DIZ
[18] = test system: Bacillus subtilis; test: Antimicrobial activity against Bacillus subtilis ATCC 6633 at 400 ug after 18 hrs by disk diffusion method; settings: ATCC 6633, 18 h, read-out: DIZ
[19] = test system: Bacillus cereus; test: Antimicrobial activity against Bacillus cereus ATCC 11778 at 400 ug after 18 hrs by disk diffusion method; settings: ATCC 11778, 18 h, read-out: DIZ
[20] = test system: Enterococcus hirae; test: Antimicrobial activity against Enterococcus hirae ATCC 10541 at 400 ug after 18 hrs by disk diffusion method
[21] = test system: Micrococcus luteus; test: Antimicrobial activity against Micrococcus luteus ATCC 9341 at 400 ug after 18 hrs by disk diffusion method
[22] = test system: Micrococcus luteus; test: Antimicrobial activity against Micrococcus luteus ATCC 10240 at 400 ug after 18 hrs by disk diffusion method; settings: ATCC 10240, 18 h, read-out: DIZ
[23] = test system: Staphylococcus aureus; test: Antimicrobial activity against Staphylococcus aureus ATCC 25923 at 400 ug after 18 hrs by disk diffusion method; settings: ATCC 25923, 18 h, read-out: DIZ
[24] = test system: Staphylococcus aureus; test: Antimicrobial activity against Staphylococcus aureus ATCC 6538 at 400 ug after 18 hrs by disk diffusion method; settings: ATCC 6538, 18 h, read-out: DIZ
[25] = test system: Staphylococcus aureus; test: Antimicrobial activity against Staphylococcus aureus ATCC 29213 at 400 ug after 18 hrs by disk diffusion method; settings: ATCC 29213, 18 h, read-out: DIZ
[26] = test system: Staphylococcus aureus; test: Antimicrobial activity against Staphylococcus aureus NCTC 4163 after 18 hrs by twofold dilution technique; settings: NCTC 4163, 18 h
[27] = test system: Staphylococcus aureus; test: Antimicrobial activity against Staphylococcus aureus ATCC 25923 after 18 hrs by twofold dilution technique; settings: ATCC 25923, 18 h
[28] = test system: Staphylococcus aureus; test: Antimicrobial activity against Staphylococcus aureus ATCC 6538 after 18 hrs by twofold dilution technique; settings: ATCC 6538, 18 h
[29] = test system: Staphylococcus aureus; test: Antimicrobial activity against Staphylococcus aureus ATCC 29213 after 18 hrs by twofold dilution technique; settings: ATCC 29213, 18 h
[30] = test system: Staphylococcus epidermidis; test: Antimicrobial activity against Staphylococcus epidermidis ATCC 12228 by twofold dilution technique
[31] = test system: Bacillus subtilis; test: Antimicrobial activity against Bacillus subtilis ATCC 6633 after 18 hrs by twofold dilution technique; settings: ATCC 6633, 18 h
[32] = test system: Bacillus cereus; test: Antimicrobial activity against Bacillus cereus ATCC 11778 after 18 hrs by twofold dilution technique; settings: ATCC 11778, 18 h
[33] = test system: Enterococcus hirae; test: Antimicrobial activity against Enterococcus hirae ATCC 10541 after 18 hrs by twofold dilution technique; settings: ATCC 10541, 18 h
[34] = test system: Micrococcus luteus; test: Antimicrobial activity against Micrococcus luteus ATCC 9341 after 18 hrs by twofold dilution technique; settings: ATCC 9341, 18 h
[35] = test system: Micrococcus luteus; test: Antimicrobial activity against Micrococcus luteus ATCC 10240 by twofold dilution technique
[36] = test system: Staphylococcus aureus; test: Antimicrobial activity against methicillin-resistant Staphylococcus aureus 136/6 by twofold dilution technique
[37] = test system: Staphylococcus aureus; test: Antimicrobial activity against Methicillin susceptible Staphylococcus aureus 206/7 by twofold dilution technique
[38] = test system: Staphylococcus aureus; test: Antimicrobial activity against Methicillin susceptible Staphylococcus aureus 207/7 by twofold dilution technique
[39] = test system: Staphylococcus aureus; test: Antimicrobial activity against Methicillin susceptible Staphylococcus aureus 208/7 by twofold dilution technique
[40] = test system: Staphylococcus aureus; test: Antimicrobial activity against Methicillin susceptible Staphylococcus aureus 212/7 by twofold dilution technique

| SMILES | MIC [1] | MIC [2] | MIC [3] | MIC [4] | MIC [5] | MIC [6] | MIC [7] | MIC [8] | MIC [9] | MIC [10] | MIC [11] | MIC [12] | MIC [13] | MIC [14] | MIC [15] | zone of inhibition at 400 µg/disc [16] | zone of inhibition at 400 µg/disc [17] | zone of inhibition at 400 µg/disc [18] | zone of inhibition at 400 µg/disc [19] | diameter of the inhibition zone (DIZ) [20] | other results |
| --- | --- | --- | --- | --- | --- | --- | --- | --- | --- | --- | --- | --- | --- | --- | --- | --- | --- | --- | --- | --- | --- |
| COCCOCCN/N=C/c1c(O)c(O)c(C(C)C)c2cc(C)c(-c3c(C)cc4c(C(C)C)c(O)c(O)c(/C=N/NCCOCCOC)c4c3O)c(O)c12 | 200 µg/mL (≈ 266 µM) | 200 µg/mL (≈ 266 µM) | 100 µg/mL (≈ 133 µM) | 400 µg/mL (≈ 533 µM) | 50 µg/mL (≈ 66.6 µM) | 400 µg/mL (≈ 533 µM) | 200 µg/mL (≈ 266 µM) | 200 µg/mL (≈ 266 µM) | 400 µg/mL (≈ 533 µM) | 200 µg/mL (≈ 266 µM) | 200 µg/mL (≈ 266 µM) | 200 µg/mL (≈ 266 µM) | 400 µg/mL (≈ 533 µM) | 200 µg/mL (≈ 266 µM) | 100 µg/mL (≈ 133 µM) | 12 mm | 12 mm | 11 mm | 11 mm | inactive | diameter of the inhibition zone (DIZ) [21]: inactive; zone of inhibition at 400 µg/disc [22]: 11 mm; zone of inhibition at 400 µg/disc [23]: 12 mm; zone of inhibition at 400 µg/disc [24]: 12 mm; zone of inhibition at 400 µg/disc [25]: 13 mm; MIC [26]: 200 µg/mL (≈ 266 µM); MIC [27]: 200 µg/mL (≈ 266 µM); MIC [28]: 100 µg/mL (≈ 133 µM); MIC [29]: 100 µg/mL (≈ 133 µM); MIC [30]: > 400 µg/mL; MIC [31]: 400 µg/mL (≈ 533 µM); MIC [32]: 100 µg/mL (≈ 133 µM); MIC [33]: 200 µg/mL (≈ 266 µM); MIC [34]: 200 µg/mL (≈ 266 µM); MIC [35]: 200 µg/mL (≈ 266 µM); MIC [36]: 100 µg/mL (≈ 133 µM); MIC [37]: 100 µg/mL (≈ 133 µM); MIC [38]: 400 µg/mL (≈ 533 µM); MIC [39]: 400 µg/mL (≈ 533 µM); MIC [40]: 400 µg/mL (≈ 533 µM) |
| Cc1cc2c(C(C)C)c(O)c(O)c(/C=N/N3CCN(CCO)CC3)c2c(O)c1-c1c(C)cc2c(C(C)C)c(O)c(O)c(/C=N/N3CCN(CCO)CC3)c2c1O | 50 µg/mL (≈ 64.7 µM) | 25 µg/mL (≈ 32.3 µM) | 25 µg/mL (≈ 32.3 µM) | 25 µg/mL (≈ 32.3 µM) | 12.5 µg/mL (≈ 16.2 µM) | 25 µg/mL (≈ 32.3 µM) | 50 µg/mL (≈ 64.7 µM) | 50 µg/mL (≈ 64.7 µM) | 50 µg/mL (≈ 64.7 µM) | 50 µg/mL (≈ 64.7 µM) | 50 µg/mL (≈ 64.7 µM) | 50 µg/mL (≈ 64.7 µM) | 50 µg/mL (≈ 64.7 µM) | 50 µg/mL (≈ 64.7 µM) | 25 µg/mL (≈ 32.3 µM) | 13 mm | 14 mm | 12 mm | 12 mm | inactive | diameter of the inhibition zone (DIZ) [21]: inactive; zone of inhibition at 400 µg/disc [22]: 15 mm; zone of inhibition at 400 µg/disc [23]: 13 mm; zone of inhibition at 400 µg/disc [24]: 12 mm; zone of inhibition at 400 µg/disc [25]: 12 mm; MIC [26]: 50 µg/mL (≈ 64.7 µM); MIC [27]: 50 µg/mL (≈ 64.7 µM); MIC [28]: 25 µg/mL (≈ 32.3 µM); MIC [29]: 25 µg/mL (≈ 32.3 µM); MIC [30]: 200 µg/mL (≈ 259 µM); MIC [31]: 100 µg/mL (≈ 129 µM); MIC [32]: 25 µg/mL (≈ 32.3 µM); MIC [33]: 50 µg/mL (≈ 64.7 µM); MIC [34]: 50 µg/mL (≈ 64.7 µM); MIC [35]: 50 µg/mL (≈ 64.7 µM); MIC [36]: 50 µg/mL (≈ 64.7 µM); MIC [37]: 25 µg/mL (≈ 32.3 µM); MIC [38]: 50 µg/mL (≈ 64.7 µM); MIC [39]: 50 µg/mL (≈ 64.7 µM); MIC [40]: 50 µg/mL (≈ 64.7 µM) |
| COCCOC(CN/N=C/c1c(O)c(O)c(C(C)C)c2cc(C)c(-c3c(C)cc4c(C(C)C)c(O)c(O)c(/C=N/NCC(OCCOC)OCCOC)c4c3O)c(O)c12)OCCOC | 400 µg/mL (≈ 445 µM) | 400 µg/mL (≈ 445 µM) | 400 µg/mL (≈ 445 µM) | 400 µg/mL (≈ 445 µM) | 200 µg/mL (≈ 222 µM) | > 400 µg/mL | 400 µg/mL (≈ 445 µM) | 400 µg/mL (≈ 445 µM) | > 400 µg/mL | 400 µg/mL (≈ 445 µM) | 400 µg/mL (≈ 445 µM) | > 400 µg/mL | > 400 µg/mL | > 400 µg/mL | 400 µg/mL (≈ 445 µM) | 11 mm | 13 mm | 12 mm | 12 mm | inactive | diameter of the inhibition zone (DIZ) [21]: inactive; zone of inhibition at 400 µg/disc [22]: 14 mm; zone of inhibition at 400 µg/disc [23]: 12 mm; zone of inhibition at 400 µg/disc [24]: 11 mm; zone of inhibition at 400 µg/disc [25]: 11 mm; MIC [26]: 400 µg/mL (≈ 445 µM); MIC [27]: 400 µg/mL (≈ 445 µM); MIC [28]: 400 µg/mL (≈ 445 µM); MIC [29]: 400 µg/mL (≈ 445 µM); MIC [30]: > 400 µg/mL; MIC [31]: > 400 µg/mL; MIC [32]: 400 µg/mL (≈ 445 µM); MIC [33]: 400 µg/mL (≈ 445 µM); MIC [34]: 400 µg/mL (≈ 445 µM); MIC [35]: 400 µg/mL (≈ 445 µM); MIC [36]: 400 µg/mL (≈ 445 µM); MIC [37]: 400 µg/mL (≈ 445 µM); MIC [38]: > 400 µg/mL; MIC [39]: > 400 µg/mL; MIC [40]: > 400 µg/mL |
